Consider 26 molecules from US9593108B2, “Compounds and methods for antiviral treatment” (PTC Therapeutics, Inc., priority 2009, dated 2017).

pIC50: −log10 of the molar value.

The test system of series [1] is HCV replicon RNA (GenBank Accession No. AJ242654). Description: HCV Replicon Assay (replicon RNA reduction and/or Fluc reporter signal). The series is classed as cell-based, Hepatitis C virus. As to conditions: Hepatitis C virus, 72 h, replicon-containing cells cultured with test compound for up to 3 days. The gist of the method: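 Bicistronic replicon-containing cells cultured with compound for up to 3 days, with interferon as positive control. Inhibition quantified by replicon RNA reduction and/or Fluc reporter signal; IC50 values generally derived from replicon RNA reduction.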
For orientation: Replicon systems follow genome replication, usually without infectious particles.

The term pIC50 denotes the IC50 on a negative log10 scale, so that one unit is a factor of ten. A high value points to a low IC50. For orientation: melting point means the temperature, or range, at which the solid turns liquid. Regarding `CCc1cnc2c(c1)c(C#N)c(-c1ccc(S(=O)(=O)N[C@@H](C)C(F)(F)F)cn1)n2-c1cccs1` [Cpd 509, 6-[3-cyano-5-ethyl-1-(thiophen-2-yl)-1H-pyrrolo[2,3-b]pyridin-2-yl]-N-[(2S)-1,1,1-trifluoropropan-2-yl]pyridine-3-sulfonamide], the melting point lay in the range of 169 to 171 °C. The molecule also gave a pIC50 in series [1] of over 6.30.

For `C[C@H](NS(=O)(=O)c1cnc(-c2c(C#N)c3cc(F)cnc3n2C2CCC2)nc1)C(F)(F)F` [Cpd 21, 2-(3-cyano-1-cyclobutyl-5-fluoro-1H-pyrrolo[2,3-b]pyridin-2-yl)-N-[(2S)-1,1,1-trifluoropropan-2-yl]pyrimidine-5-sulfonamide], the melting point fell in the range of 186 to 187 °C. Besides, the pIC50 in series [1] is over 6.30.

`CC(C)NS(=O)(=O)c1cnc(-c2c(C#N)c3cc(Cl)cnc3n2C2CCC2)nc1` [Cpd 58, 2-(5-chloro-3-cyano-1-cyclobutyl-1H-pyrrolo[2,3-b]pyridin-2-yl)-N-(propan-2-yl)pyrimidine-5-sulfonamide] gave a melting point of 224 to 225 °C. In addition, in series [1], the negative-log IC50 (pIC50) is over 6.30.

Turning to `CC(C)(C)NS(=O)(=O)c1ccc(-c2c(C(N)=O)c3cc(Cl)cnc3n2C2CCC2)nc1` [Cpd 327, 2-[5-(tert-butylsulfamoyl)pyridin-2-yl]-5-chloro-1-cyclobutyl-1H-pyrrolo[2,3-b]pyridine-3-carboxamide], the melting point lay in the range of 240 to 241 °C. In addition, the pIC50 in series [1] is over 6.30.

`COc1cnc2c(c1)c(C#N)c(-c1ncc(S(=O)(=O)N[C@@H](C)C(F)(F)F)cn1)n2C1CCC1` [Cpd 23, 2-(3-cyano-1-cyclobutyl-5-methoxy-1H-pyrrolo[2,3-b]pyridin-2-yl)-N-[(2S)-1,1,1-trifluoropropan-2-yl]pyrimidine-5-sulfonamide] displayed a melting point of 193 to 196 °C. For the same molecule, the negative-log IC50 (pIC50) in series [1] was 5.70 to 6.30.

`CC1(NS(=O)(=O)c2ccc(-c3c(C#N)c4cc(C(F)(F)F)cnc4n3C3CCCCC3)cc2)CC1` [Cpd 421, 4-[3-cyano-1-cyclohexyl-5-(trifluoromethyl)-1H-pyrrolo[2,3-b]pyridin-2-yl]-N-(1-methylcyclopropyl)benzenesulfonamide] had a melting point of 173 to 175 °C. The negative logarithm of the IC50 (pIC50) in series [1] is over 6.30.

In turn, `C[C@H](NS(=O)(=O)c1ccc(-c2c(C#N)c3cc(F)cnc3n2-c2ncccn2)nc1)C(F)(F)F` [Cpd 320, 6-[3-cyano-5-fluoro-1-(pyrimidin-2-yl)-1H-pyrrolo[2,3-b]pyridin-2-yl]-N-[(2S)-1,1,1-trifluoropropan-2-yl]pyridine-3-sulfonamide] gave a melting point of 171 to 173 °C. The pIC50 in series [1] was over 6.30.

The molecule `Cc1cnc2c(c1)c(C#N)c(-c1ccc(S(=O)(=O)N[C@@H](C)C(F)(F)F)cn1)n2-c1nc(C#N)cs1` [Cpd 514, 6-[3-cyano-1-(4-cyano-1,3-thiazol-2-yl)-5-methyl-1H-pyrrolo[2,3-b]pyridin-2-yl]-N-[(2S)-1,1,1-trifluoropropan-2-yl]pyridine-3-sulfonamide] showed a melting point of 259 to 261 °C. In series [1], the negative logarithm of the IC50 (pIC50) is 5.70 to 6.30.

Turning to `Cc1ccc2c(C#N)c(-c3ccc(S(=O)(=O)NC4CCC4)cn3)n(C3CCC3)c2n1` [Cpd 148, 6-(3-cyano-1-cyclobutyl-6-methyl-1H-pyrrolo[2,3-b]pyridin-2-yl)-N-cyclobutylpyridine-3-sulfonamide], the melting point was in the range of 151 to 160 °C. In series [1], this molecule gave a pIC50 of over 6.30.

For `C[C@@H](NS(=O)(=O)c1ccc(-c2c(C#N)c3cccnc3n2C2CCC2)nc1)C(F)(F)F` [Cpd 35, 6-(3-cyano-1-cyclobutyl-1H-pyrrolo[2,3-b]pyridin-2-yl)-N-[(2R)-1,1,1-trifluoropropan-2-yl]pyridine-3-sulfonamide], the melting point lay within 184 to 186 °C. This molecule also showed a pIC50 in series [1] of over 6.30.

As for `C[C@H](NS(=O)(=O)c1ccc(-c2c(C#N)c3cc(C(F)(F)F)cnc3n2-c2cnccn2)nc1)C(F)(F)F` [Cpd 316, 6-[3-cyano-1-(pyrazin-2-yl)-5-(trifluoromethyl)-1H-pyrrolo[2,3-b]pyridin-2-yl]-N-[(2S)-1,1,1-trifluoropropan-2-yl]pyridine-3-sulfonamide], the melting point lay in the range of 226 to 228 °C. This molecule also had a negative-log IC50 (pIC50) in series [1] of over 6.30.

For the molecule `Cc1cnc2c(c1)c(C#N)c(-c1ccc(S(=O)(=O)N[C@@H](C)C(F)(F)F)cc1)n2C` [Cpd 483, 4-(3-cyano-1,5-dimethyl-1H-pyrrolo[2,3-b]pyridin-2-yl)-N-[(2S)-1,1,1-trifluoropropan-2-yl]benzenesulfonamide], the melting point was 165 to 170 °C. For the same molecule, the pIC50 in series [1] was 5.70 to 6.30.

The molecule `C[C@H](NS(=O)(=O)c1ccc(-c2c(C#N)c3cc(Cl)cnc3n2C2CCCC2)nc1)C(F)(F)F` [Cpd 24, 6-(5-chloro-3-cyano-1-cyclopentyl-1H-pyrrolo[2,3-b]pyridin-2-yl)-N-[(2S)-1,1,1-trifluoropropan-2-yl]pyridine-3-sulfonamide] yielded a melting point of 197 to 199 °C. The same molecule had a negative logarithm of the IC50 (pIC50) in series [1] of over 6.30.

Consider `CC(C)(C)NS(=O)(=O)c1ccc(-c2c(C#N)c3cc(Cl)cnc3n2-c2nccs2)nc1` [Cpd 515, N-tert-butyl-6-[5-chloro-3-cyano-1-(1,3-thiazol-2-yl)-1H-pyrrolo[2,3-b]pyridin-2-yl]pyridine-3-sulfonamide], for which the melting point was in the range of 216 to 218 °C. The molecule further showed a negative logarithm of the IC50 (pIC50) in series [1] of over 6.30.

`C[C@H](NS(=O)(=O)c1ccc(-c2c(C#N)c3cnc(OC(F)F)nc3n2C2CCC2)nc1)C(F)(F)F` [Cpd 62, 6-[5-cyano-7-cyclobutyl-2-(difluoromethoxy)-7H-pyrrolo[2,3-d]pyrimidin-6-yl]-N-[(2S)-1,1,1-trifluoropropan-2-yl]pyridine-3-sulfonamide] came in with a melting point of 172 to 174 °C. The negative logarithm of the IC50 (pIC50) in series [1] was over 6.30.

With `Cc1ncc2c(C#N)c(-c3ccc(S(=O)(=O)N[C@@H](C)C(F)(F)F)cc3)n(C3CCCC3)c2n1` [Cpd 164, 4-(5-cyano-7-cyclopentyl-2-methyl-7H-pyrrolo[2,3-d]pyrimidin-6-yl)-N-[(2S)-1,1,1-trifluoropropan-2-yl]benzenesulfonamide], the melting point lay within 202 to 204 °C. In series [1], this molecule showed a pIC50 of 5.70 to 6.30.

Turning to `Cc1cnc2c(C#N)c(-c3ccc(S(=O)(=O)NC4(C)CC4)cn3)n(C3CCC3)c2c1` [Cpd 210, 6-(3-cyano-1-cyclobutyl-6-methyl-1H-pyrrolo[3,2-b]pyridin-2-yl)-N-(1-methylcyclopropyl)pyridine-3-sulfonamide], the melting point fell in the range of 187 to 188 °C. The pIC50 in series [1] was over 6.30.

Regarding `Cc1cc(S(=O)(=O)N[C@@H](C)C(F)(F)F)cnc1-c1c(C#N)c2cc(C(F)(F)F)cnc2n1C1CCC1` [Cpd 301, 6-[3-cyano-1-cyclobutyl-5-(trifluoromethyl)-1H-pyrrolo[2,3-b]pyridin-2-yl]-5-methyl-N-[(2S)-1,1,1-trifluoropropan-2-yl]pyridine-3-sulfonamide], the melting point was in the range of 190 to 194 °C. Besides, the pIC50 in series [1] was over 6.30.

As to `C[C@H](NS(=O)(=O)c1ccc(-c2c(C#N)c3ccc(Cl)nc3n2C2CCC2)nc1)C(F)(F)F` [Cpd 161, 6-(6-chloro-3-cyano-1-cyclobutyl-1H-pyrrolo[2,3-b]pyridin-2-yl)-N-[(2S)-1,1,1-trifluoropropan-2-yl]pyridine-3-sulfonamide], the melting point lay within 172 to 178 °C. This molecule gave a pIC50 in series [1] of over 6.30.

The molecule `Cc1cnc2c(c1)c(C#N)c(-c1ccc(S(=O)(=O)N[C@H](C)C(F)(F)F)cn1)n2C1CCCC1` [Cpd 254, 6-(3-cyano-1-cyclopentyl-5-methyl-1H-pyrrolo[2,3-b]pyridin-2-yl)-N-[(2R)-1,1,1-trifluoropropan-2-yl]pyridine-3-sulfonamide] displayed a melting point of 155 to 162 °C. The molecule also showed a negative logarithm of the IC50 (pIC50) in series [1] of over 6.30.

In the case of `C[C@H](NS(=O)(=O)c1ccc(-c2c(C#N)c3cc(C(F)F)cnc3n2C2CCC2)cc1)C(F)(F)F` [Cpd 453, 4-[3-cyano-1-cyclobutyl-5-(difluoromethyl)-1H-pyrrolo[2,3-b]pyridin-2-yl]-N-[(2S)-1,1,1-trifluoropropan-2-yl]benzenesulfonamide], the melting point lay in the range of 203 to 205 °C. Moreover, the negative logarithm of the IC50 (pIC50) in series [1] was over 6.30.

`CC(C)NS(=O)(=O)c1ccc(-c2c(C#N)c3cccnc3n2C2CCC2)cc1` [Cpd 7, 4-(3-cyano-1-cyclobutyl-1H-pyrrolo[2,3-b]pyridin-2-yl)-N-(propan-2-yl)benzenesulfonamide] returned a melting point of 198 to 200 °C. In addition, the negative-log IC50 (pIC50) in series [1] is 5.70 to 6.30.

In turn, `N#Cc1c(-c2ccc(S(=O)(=O)NC3(C(F)(F)F)CC3)cc2)n(C2CCCC2)c2cc(Cl)ncc12` [Cpd 89, 4-(6-chloro-3-cyano-1-cyclopentyl-1H-pyrrolo[3,2-c]pyridin-2-yl)-N-[1-(trifluoromethyl)cyclopropyl]benzenesulfonamide] showed a melting point of 288 to 289 °C. In series [1], the pIC50 is 5.30 to 5.70.

The molecule `C[C@H](NS(=O)(=O)c1ccc(-c2c(C#N)c3cc(C(F)(F)F)cnc3n2C2CC2)nc1)C(F)(F)F` [Cpd 360, 6-[3-cyano-1-cyclopropyl-5-(trifluoromethyl)-1H-pyrrolo[2,3-b]pyridin-2-yl]-N-[(2S)-1,1,1-trifluoropropan-2-yl]pyridine-3-sulfonamide] had a melting point of 194 to 196 °C. Moreover, the negative logarithm of the IC50 (pIC50) in series [1] is over 6.30.

For `CC(C)NS(=O)(=O)c1cnc(-c2c(C#N)c3cccnc3n2C2CCC2)nc1` [Cpd 36, 2-(3-cyano-1-cyclobutyl-1H-pyrrolo[2,3-b]pyridin-2-yl)-N-(propan-2-yl)pyrimidine-5-sulfonamide], the melting point is 197 to 199 °C. Besides, in series [1], the pIC50 was over 6.30.

In turn, `CCc1cnc2c(c1)c(C#N)c(-c1ccc(S(=O)(=O)NC3(C(F)(F)F)CC3)cc1)n2C1CCC1` [Cpd 183, 4-(3-cyano-1-cyclobutyl-5-ethyl-1H-pyrrolo[2,3-b]pyridin-2-yl)-N-[1-(trifluoromethyl)cyclopropyl]benzenesulfonamide] showed a melting point of 161 to 168 °C. In series [1], the negative-log IC50 (pIC50) was 5.70 to 6.30.
